Results taken from PMC10035947, “Development of novel anilinoquinazoline-based carboxylic acids as non-classical carbonic anhydrase IX and XII inhibitors” (Journal of Enzyme Inhibition and Medicinal Chemistry, 2023).

What was measured:
Test in all cases: NCI SRB assay
NCI-H460 = format: cell-based, human
COLO 205 = format: cell-based, human
HCT-116 = format: cell-based, human
LOX IMVI = format: cell-based, human
OVCAR-5 = format: cell-based, human
MOLT-4 = format: cell-based, human
NCI/ADR-RES = format: cell-based, human
786-0 = format: cell-based, human
HCC-2998 = format: cell-based, human
HOP-92 = format: cell-based, human
UACC-257 = format: cell-based, human
RPMI-8226 = format: cell-based, human
SK-MEL-28 = format: cell-based, human
A549/ATCC = format: cell-based, human; conditions: A549/ATCC
ACHN = format: cell-based, human
SW-620 = format: cell-based, human
MALME-3M = format: cell-based, human
OVCAR-4 = format: cell-based, human
K-562 = format: cell-based, human
SNB-19 = format: cell-based, human
HS 578 T = format: cell-based, human
SK-MEL-2 = format: cell-based, human
SN12C = format: cell-based, human; conditions: SN12C
OVCAR-8 = format: cell-based, human
SF-539 = format: cell-based, human
SF-268 = format: cell-based, human
MDA-MB-435 = format: cell-based
U251 = format: cell-based, human
BT-549 = format: cell-based, human
NCI-H23 = format: cell-based, human; conditions: NCI-H23, 1.00E-5 Molar
NCI-H322M = format: cell-based, human
A498 = format: cell-based, human

Cc1cccc(-c2nc(Nc3ccc(C(=O)O)cc3)c3ccccc3n2)c1 [8a, 4-((2-(m-Tolyl)quinazolin-4-yl)amino)benzoic acid]
GI% (NCI-H460; NCI-H460, 10 μM): 22% | Growth Percent (NCI-H460; NCI-H460, 1.00E-5 Molar): 78.01% | GI% (COLO 205; COLO 205, 10 μM): – (Only GI% higher than 20% are shown) | Growth Percent (COLO 205; COLO 205, 1.00E-5 Molar): 135.98% | GI% (HCT-116; HCT-116, 10 μM): – (Only GI% higher than 20% are shown) | Growth Percent (HCT-116; HCT-116, 1.00E-5 Molar): 81.80% | GI% (LOX IMVI; 10 μM): 29% | Growth Percent (LOX IMVI; 1.00E-5 Molar): 71.49% | GI% (OVCAR-5; OVCAR-5, 10 μM): – (Only GI% higher than 20% are shown) | Growth Percent (OVCAR-5; OVCAR-5, 1.00E-5 Molar): 133.93% | GI% (MOLT-4; MOLT-4, 10 μM): 22% | Growth Percent (MOLT-4; MOLT-4, 1.00E-5 Molar): 78.39% | GI% (NCI/ADR-RES; 10 μM): – (Only GI% higher than 20% are shown) | Growth Percent (NCI/ADR-RES; 1.00E-5 Molar): 84.58% | GI% (786-0; 786-0, 10 μM): 29% | Growth Percent (786-0; 786-0, 1.00E-5 Molar): 70.77% | GI% (HCC-2998; HCC-2998, 10 μM): 24% | Growth Percent (HCC-2998; HCC-2998, 1.00E-5 Molar): 75.96% | GI% (HOP-92; HOP-92, 10 μM): 29% | Growth Percent (HOP-92; HOP-92, 1.00E-5 Molar): 71.13% | GI% (UACC-257; UACC-257, 10 μM): – (Only GI% higher than 20% are shown) | Growth Percent (UACC-257; UACC-257, 1.00E-5 Molar): 101.78% | GI% (RPMI-8226; RPMI-8226, 10 μM): 30% | Growth Percent (RPMI-8226; RPMI-8226, 1.00E-5 Molar): 70.27% | GI% (SK-MEL-28; SK-MEL-28, 10 μM): – (Only GI% higher than 20% are shown) | Growth Percent (SK-MEL-28; SK-MEL-28, 1.00E-5 Molar): 96.84% | GI% (A549/ATCC; 10 μM): 22% | Growth Percent (A549/ATCC; 1.00E-5 Molar): 78.30% | GI% (ACHN; 10 μM): – (Only GI% higher than 20% are shown) | Growth Percent (ACHN; 1.00E-5 Molar): 85.41% | GI% (SW-620; SW-620, 10 μM): – (Only GI% higher than 20% are shown) | Growth Percent (SW-620; SW-620, 1.00E-5 Molar): 84.27% | GI% (MALME-3M; 10 μM): – (Only GI% higher than 20% are shown) | Growth Percent (MALME-3M; 1.00E-5 Molar): 110.61% | GI% (OVCAR-4; OVCAR-4, 10 μM): – (Only GI% higher than 20% are shown) | Growth Percent (OVCAR-4; OVCAR-4, 1.00E-5 Molar): 83.42% | GI% (K-562; K-562, 10 μM): – (Only GI% higher than 20% are shown) | Growth Percent (K-562; K-562, 1.00E-5 Molar): 80.44% | GI% (SNB-19; SNB-19, 10 μM): 33% | Growth Percent (SNB-19; SNB-19, 1.00E-5 Molar): 67.24% | GI% (HS 578 T; HS 578 T, 10 μM): 48% | Growth Percent (HS 578 T; HS 578T, 1.00E-5 Molar): 51.51% | GI% (SK-MEL-2; SK-MEL-2, 10 μM): – (Only GI% higher than 20% are shown) | Growth Percent (SK-MEL-2; SK-MEL-2, 1.00E-5 Molar): 123.11% | GI% (SN12C; 10 μM): 42% | Growth Percent (SN12C; 1.00E-5 Molar): 58.07% | GI% (OVCAR-8; OVCAR-8, 10 μM): – (Only GI% higher than 20% are shown) | Growth Percent (OVCAR-8; OVCAR-8, 1.00E-5 Molar): 82.44% | GI% (SF-539; SF-539, 10 μM): – (Only GI% higher than 20% are shown) | Growth Percent (SF-539; SF-539, 1.00E-5 Molar): 91.50% | GI% (SF-268; SF-268, 10 μM): 37% | Growth Percent (SF-268; SF-268, 1.00E-5 Molar): 62.51% | GI% (MDA-MB-435; MDA-MB-435, 10 μM): – (Only GI% higher than 20% are shown) | Growth Percent (MDA-MB-435; MDA-MB-435, 1.00E-5 Molar): 96.58% | GI% (U251; U251, 10 μM): 27% | Growth Percent (U251; U251, 1.00E-5 Molar): 72.61% | GI% (BT-549; BT-549, 10 μM): 34% | Growth Percent (BT-549; BT-549, 1.00E-5 Molar): 66.04% | Growth Percent (NCI-H23): 99.04% | GI% (NCI-H322M; 10 μM): – (Only GI% higher than 20% are shown) | Growth Percent (NCI-H322M; 1.00E-5 Molar): 103.28% | GI% (A498; A498, 10 μM): 54% | Growth Percent (A498; A498, 1.00E-5 Molar): 45.68%
